US20070123546A1, “2-amino-7,8-dihydro-6H-pyrido[4,3-d]pyrimidin-5-ones” (Chiron Corporation, priority 2005, published 2007)

Target: His-tagged N-terminal ATP binding domain (amino acid residues 9-236) of HSP90α (Homo sapiens, UniProt P07900)
Test: HSP90 inhibitor binding potency: TRF competition binding assay
Conditions: Table 2; competition with biotinylated radicicol
How it was run: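 His-tagged HSP90α N-domain (residues 9-236) incubated 2 h at room temperature with biotinylated radicicol and increasing compound in 50 mM HEPES, 6 mM MgCl2, 20 mM KCl, 0.1% BSA. Bound tracer captured on streptavidin plates, detected with europium anti-His antibody by time-resolved fluorescence; IC50 derived.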

Row | IC50 [µM] | Compound
1 | < 10 | COc1cncc(-c2cc(F)ccc2[C@H]2Cc3nc(N)ncc3C(=O)N2)n1 [Compound 53, (R)-2-Amino-7-[4-fluoro-2-(6-methoxy-pyrazin-2-yl)-phenyl]-7,8-dihydro-6H-pyrido[4,3-d]pyrimidin-5-one]
2 | < 10 | COc1nc(-c2ccccc2[C@H]2Cc3nc(N)nc(C)c3C(=O)N2)ncc1F [Compound 64, (R)-2-Amino-7-[2-(5-fluoro-4-methoxy-pyrimidin-2-yl)-phenyl]-4-methyl-7,8-dihydro-6H-pyrido[4,3-d]pyrimidin-5-one]
3 | < 10 | CCc1nc(N)nc2c1C(=O)N[C@@H](c1ccc(F)cc1-c1csc(OC)n1)C2 [Compound 84, (R)-2-Amino-4-ethyl-7-[4-fluoro-2-(2-methoxy-thiazol-4-yl)-pbenyl]-7,8-dihydro-6H-pyrido[4,3-d]pyrimidin-5-one]

Same assay, conditions: Table 3; competition with biotinylated radicicol

Row | IC50 [µM] | Compound
4 | < 10 | COc1cncc(-c2cc(F)ccc2[C@H]2Cc3nc(N)nc(C)c3C(=O)N2CCO)n1 [Compound 113, (R)-2-Amino-7-[4-fluoro-2-(6-methoxy-pyrazin-2-yl)-phenyl]-6-(2-hydroxy-ethyl)-4-methyl-7,8-dihydro-6H-pyrido[4,3-d]pyrimidin-5-one]
5 | < 10 | COc1cccc(-c2cc(F)ccc2[C@H]2Cc3nc(N)nc(C)c3C(=O)N2CC(C)C)n1 [Compound 155, (R)-2-Amino-7-[4-fluoro-2-(6-methoxy-pyridin-2-yl)-phenyl]-6-isobutyl-4-methyl-7,8-dihydro-6H-pyrido[4,3-d]pyrimidin-5-one]
6 | < 10 | COc1cncc(-c2cc(F)ccc2[C@H]2Cc3nc(N)nc(C)c3C(=O)N2CC(C)C)n1 [Compound 154, (R)-2-Amino-7-[4-fluoro-2-(6-methoxy-pyrazin-2-yl)-phenyl]-6-isobutyl-4-methyl-7,8-dihydro-6H-pyrido[4,3-d]pyrimidin-5-one]
7 | < 10 | CCN1C(=O)c2c(C)nc(N)nc2C[C@@H]1c1ccc(F)cc1-c1cccnc1 [Compound 110, (R)-2-Amino-6-ethyl-7-(4-fluoro-2-pyridin-3-yl-phenyl)-4-methyl-7,8-dihydro-6H-pyrido[4,3-d]pyrimidin-5-one]
8 | > 10 | Cc1nc(N)nc2c1C(=O)NC(c1ccc(F)cc1-c1ccncc1)C2 (stereo not shown) [Compound 90, 2-Amino-7-(4-fluoro-2-pyridin-4-yl-phenyl)-4-methyl-7,8-dihydro-6H-pyrido[4,3-d]pyrimidin-5-one]
9 | < 10 | Cc1nc(N)nc2c1C(=O)N[C@@H](c1ccc(F)cc1)C2 [Compound 102, (R)-2-Amino-7-(4-fluoro-phenyl)-4-methyl-7,8-dihydro-6H-pyrido[4,3-d]pyrimidin-5-one]
10 | > 10 | Cc1ccc(-c2cc(F)ccc2[C@H]2Cc3nc(N)nc(C)c3C(=O)N2Cc2ccccc2)c(F)c1 [Compound 142, (R)-2-Amino-6-benzyl-7-(5,2′-difluoro-4′-methyl-biphenyl-2-yl)-4-methyl-7,8-dihydro-6H-pyrido[4,3-d]pyrimidin-5-one]
11 | > 10 | Cc1nc(N)nc2c1C(=O)N(Cc1ccccc1)[C@@H](c1ccc(F)cc1-c1ncc(Cl)c(O)n1)C2 [Compound 112, (R)-2-Amino-6-benzyl-7-[2-(5-chloro-4-hydroxy-pyrimidin-2-yl)-4-fluoro-phenyl]-4-methyl-7,8-dihydro-6H-pyrido[4,3-d]pyrimidin-5-one]
12 | < 10 | CCN1C(=O)c2c(C)nc(N)nc2C[C@@H]1c1ccc(F)cc1-c1cccc(OC)n1 [Compound 106, (R)-2-Amino-6-ethyl-7-[4-fluoro-2-(6-methoxy-pyridin-2-yl)-phenyl]-4-methyl-7,8-dihydro-6H-pyrido[4,3-d]pyrimidin-5-one]
13 | > 10 | Cc1nc(N)nc2c1C(=O)N(CCCN)[C@@H](c1ccc(F)cc1-c1cccnc1F)C2 [Compound 170, (R)-2-Amino-6-(3-amino-propyl)-7-[4-fluoro-2-(2-fluoro-pyridin-3-yl)-phenyl]-4-methyl-7,8-dihydro-6H-pyrido[4,3-d]pyrimidin-5-one]

Same assay, conditions: Table 4; competition with biotinylated radicicol

Row | IC50 [µM] | Compound
14 | < 10 | Cc1cc(F)ccc1-c1cc(F)ccc1[C@H]1Cc2nc(N)ncc2C(=O)N1 [Compound 183, (R)-2-Amino-7-(5,4′-difluoro-2′-methyl-biphenyl-2-yl)-7,8-fihydro-6H-pyrido[4,3-d]pyrimidm-5-one]
15 | ≥ 10 | CCc1nc(N)nc2c1C(=O)N[C@@H](c1ccccc1-c1csc(OC)n1)C2 [Compound 201, (R)-2-Amino-4-ethyl-7-[2-(2-methoxy-thiazol-4-yl)-phenyl]-7,8-dihydro-6H-pyrido[4,3-d]pyrimidin-5-one]
16 | < 10 | COc1cnc(-c2cc(F)ccc2[C@H]2Cc3nc(N)nc(C)c3C(=O)N2)nc1OC [Compound 185, (R)-2-Amino-7-[2-(4,5-dimethoxy-pyrimidin-2-yl)-4-fluoro-phenyl]-4-methyl-7,8-dihydro-6H-pyrido[4,3-d]pyrimidin-5-one]
17 | < 10 | CCc1nc(N)nc2c1C(=O)N[C@@H](c1ccc(F)cc1-c1cncc(OC)n1)C2 [Compound 212, (R)-2-Amino-4-ethyl-7-[4-fluoro-2-(6-methoxy-pyrazin-2-yl)-phenyl]-7,8-dihydro-6H-pyrido[4,3-d]pyrimidin-5-one]
18 | < 10 | CCOc1nc(-c2ccccc2[C@H]2Cc3nc(N)nc(C)c3C(=O)N2)cs1 [Compound 230, (R)-2-Amino-7-[2-(2-ethoxy-thiazol-4-yl)-phenyl]-4-methyl-7,8-dihydro-6H-pyrido[4,3-d]pyrimidin-5-one]
19 | < 10 | COc1cccc(-c2scnc2[C@@H]2Cc3nc(N)nc(C)c3C(=O)N2)n1 [Compound 232, (S)-2-Amino-7-[5-(6-methoxy-pyridin-2-yl)-thiazol-4-yl]-4-methyl-7,8-dihydro-6H-pyrido[4,3-d]pyrimidin-5-one]
20 | ≥ 10 | Cc1nc(N)nc2c1C(=O)N[C@@H](c1ccc(F)cc1C#N)C2 [Compound 219, 2-((R)-2-Amino-4-methyl-5-oxo-5,6,7,8-tetrahydro-pyrido[4,3-d]pyrimidin-7-yl)-5-fluoro-benzonitrile]
21 | < 10 | COc1cncc(-c2scnc2[C@@H]2Cc3nc(N)ncc3C(=O)N2)n1 [Compound 224, (S)-2-Amino-7-[5-(6-methoxy-pyrazin-2-yl)-thiazol-4-yl]-7,8-dihydro-6H-pyrido[4,3-d]pyrimidin-5-one]
22 | ≥ 10 | Cc1nc(N)nc2c1C(=O)N[C@@H](c1ccc(F)cc1-c1n[nH]c(=O)o1)C2 [Compound 222, (R)-2-Amino-7-[4-fluoro-2-(5-oxo-4,5-dihydro-[1,3,4]oxadiazol-2-yl)-phenyl]-4-methyl-7,8-dihydro-6H-pyrido[4,3-d]pyrimi[…]din-5-one]
23 | < 10 | CCOc1cncc(-c2ccccc2[C@H]2Cc3nc(N)nc(C)c3C(=O)N2)n1 [Compound 220, (R)-2-Amino-7-[2-(6-ethoxy-pyrazin-2-yl)-phenyl]-4-methyl-7,8-dihydro-6H-pyrido[4,3-d]pyrimidin-5-one]
24 | < 10 | Nc1ncc2c(n1)C[C@H](c1ccc(F)cc1-c1cccnc1)NC2=O [Compound 191, (R)-2-Amino-7-(4-fluoro-2-pyridin-3-yl-phenyl)-7,8-dihydro-6H-pyrido[4,3-d]pyrimidin-5-one]
25 | < 10 | CCc1nc(N)nc2c1C(=O)N[C@@H](c1ccccc1-c1cncc(OC)n1)C2 [Compound 199, (R)-2-Amino-4-ethyl-7-[2-(6-methoxy-pyrazin-2-yl)-phenyl]-7,8-dihydro-6H-pyrido[4,3-d]pyrimidin-5-one]
